In patent publication US12049518B2, “Pharmacokinetics and cholecystokinin-2 receptor (CCK2R) targeting for diagnosis and therapy” (Medizinische Universitat Innsbruck, priority 2017, dated 2024):
Where a SMILES comes first, the peptide text is derived from it. [ ]: non-standard residue; d: D form. The star is where a group is joined. DOTA = O=C(O)CN1CCN(CC(=O)O)CCN(CC(=O)*)CCN(CC(=O)O)CC1; 1Nal = N[C@@H](Cc1cccc2ccccc12)C(=O)O; NMeNle = CCCC[C@H](NC)C(=O)O

How the values were obtained:
[1] = biodistribution: uptake in normal tissues; type: in vivo, athymic BALB/c nude mice; details: female, athymic BALB/c nude, mouse, blood, lung and heart, iv, total radioactivity; 1 or 4 h p.i.; read-out: unspecific tissue uptake in blood, lung and heart
Method: Biodistribution studies evaluating the tumour uptake of the radiolabelled inventive CCK2R targeting peptide analogues were performed in 7-week-old female athymic BALB/c nude mice (Charles River, Sulzfeld, Germany). All animal experiments were conducted in compliance with the Austrian animal protection laws and with the approval of the Austrian Ministry of Science. For the induction of tumour xenografts, A431-CCK2R and A431-mock cells were injected subcutaneously in the right and left flank respectively (2 million cells in 200 μl). When tumours had reached a size of approximately 0.2 ml biodistribution studies were carried out. Groups of 4 mice were injected intravenously via a lateral tail vein with the peptidomimetics of the present invention, labelled with ^111In (approximately 0.2 MBq and 0.02 nmol peptidomimetic), with ^68Ga (approximately 0.8 MBq and 0.02-0.03 nmol peptidomimetic), with ^177Lu (approximately 0.5 MBq and 0.02 nmol peptidomimetic) or with ^99mTc (approximately 0.3 MBq and 0.02 nmol peptidomimetic). After a time period of 1 or 4 h post-injection (p.i.) the animals were sacrificed by cervical dislocation, tumours and other tissues (blood, lung, heart, muscle, bone, spleen, intestine, liver, kidneys, stomach, pancreas) were removed, weighed, and their radioactivity measured in the gamma counter. Results were expressed as percentage of injected activity per gram tissue (% IA/g) and tumour to organ activity ratios were calculated from the activity measured in the dissected tissues. In FIG. 4 the results of the biodistribution studies at 4 h p.i. are summarized for the ^111In-labelled peptidomimetics of the present invention in comparison with ^111In-DOTA-MGS1 and ^111In-DOTA-MGS4 (Klingler M et al., Eur J Nucl Med Mol Imaging 2017, 44: S228). In FIG. 5 the results for the model peptidomimetics of the present invention, DOTA-MGS5 and HYNIC-MGS5, radiolabelled with different radiometals are shown for different time points of 1 or 4 h p.i. […] The uptake in A431-mock tumour xenografts with values <1% IA/g was very low confirming the high receptor-specific tumour uptake. […] A combination of high stability and increased protein binding in vivo seems therefore to result in an optimal protection of the radioligand against enzymatic degradation in blood allowing reaching an extremely high tumour uptake.

[2] = test system: serum proteins; assay: protein binding to serum proteins (Sephadex G-50 size-exclusion chromatography); type: in vitro ADME; details: 37° C.; for fraction unbound at 4 h, 500 pmol/mL / fraction unbound at 24 h, 500 pmol/mL: fresh human serum; for fraction unbound at 4 h, 500 pmol/mL: read-out: Percentage of radioligand bound to serum proteins after 4 h incubation (converted); for fraction unbound at 24 h, 500 pmol/mL: read-out: Percentage of radioligand bound to serum proteins after 24 h incubation (converted); for Percentage of radioligand bound to serum proteins after 24 h incubation: human serum
Method: Additionally, protein binding to serum proteins was investigated. For this purpose the ^111In-labelled peptidomimetics were incubated in duplicates in fresh human serum at 37° C. (500 pmol/mL) and analyzed after 4 and 24 h by Sephadex G-50 size-exclusion chromatography (GE Healthcare Illustra, Little Chalfont, UK). The percentage of protein binding was determined by measuring the column and the eluate in a 2480 Wizard 2 automatic gamma-counter (Perkin Elmer Life Sciences and Analytical Sciences, Turku, F).

[3] = stability in vivo (radio-HPLC of blood sample); details: BALB/c mice, i.v.
Method: To further characterise the stability of the radiolabelled peptidomimetics in vivo, metabolic studies were carried out in 5-6-week-old female BALB/c mice (Charles River, Sulzfeld, Germany) injected intravenously with the ^111In- and […] peptidomimetics. All animal experiments were conducted in compliance with the Austrian animal protection laws and with the approval of the Austrian Ministry of Science. To allow monitoring of the metabolites by radio-HPLC, mice were injected with a higher amount of radioactivity (5-15 MBq ^111In and 20-40 MBq ^177Lu, corresponding to 1-2 nmol total peptide) through a lateral tail vein and euthanized by cervical dislocation 10 or 30 min post injection (p.i.). A sample of blood was collected and the degradation was assessed by radio-HPLC.

| Compound | tissue uptake [1] [%ID/g] | fraction unbound at 4 h, 500 pmol/mL [2] | fraction unbound at 24 h, 500 pmol/mL [2] | Percentage of radioligand bound to serum proteins after 24 h incubation [2] [%] | intact radioligand present in the blood at 10 min p.i. [3] [%] | intact radioligand present in the blood at 30 min p.i. [3] [%] |
| --- | --- | --- | --- | --- | --- | --- |
| CCCC[C@@H](C(=O)N[C@@H](CC(=O)O)C(=O)N[C@@H](Cc1cccc2ccccc12)C(N)=O)N(C)C(=O)[C@H](Cc1c[nH]c2ccccc12)NC(=O)CNC(=O)[C@H](Cc1ccc(O)cc1)NC(=O)[C@H](C)NC(=O)[C@@H](CCC(=O)O)NC(=O)CN1CCN(CC(=O)O)CCN(CC(=O)O)CCN(CC(=O)O)CC1 [^68Ga-DOTA-MGS5, metal not drawn] | 1 to 2 | – | – | – | – | – |
| CSCC[C@H](NC(=O)[C@H](Cc1c[nH]c2ccccc12)NC(=O)CNC(=O)[C@H](Cc1ccc(O)cc1)NC(=O)[C@H](C)NC(=O)[C@@H](CCC(=O)O)NC(=O)CN1CCN(CC(=O)O)CCN(CC(=O)O)CCN(CC(=O)O)CC1)C(=O)N[C@@H](CC(=O)O)C(=O)N[C@@H](Cc1cccc2ccccc12)C(N)=O [^111In-DOTA-MGS1, ^111In-DOTA-DGlu-Ala-Tyr-Gly-Trp-Met-Asp-1Nal-NH2, metal not drawn, reference compound] ({DOTA}-[dE]AYGWMD[1Nal]-NH2) | – | 0.8 | 0.712 | – | – | – |
| CCCC[C@@H](C(=O)N[C@@H](CC(=O)O)C(=O)N(C)[C@@H](Cc1ccccc1)C(N)=O)N(C)C(=O)[C@H](Cc1c[nH]c2ccccc12)NC(=O)CNC(=O)[C@H](Cc1ccc(O)cc1)NC(=O)[C@H](C)NC(=O)[C@@H](CCC(=O)O)NC(=O)CN1CCN(CC(=O)O)CCN(CC(=O)O)CCN(CC(=O)O)CC1 [^111In-DOTA-MGS4, ^111In-DOTA-DGlu-Ala-Tyr-Gly-Trp-(N-Me)Nle-Asp-(N-Me)Phe-NH2, metal not drawn, reference compound] | – | 0.911 | 0.881 | ~12 | – | – |
| CSCC[C@H](NC(=O)[C@H](Cc1c[nH]c2ccccc12)NC(=O)CNC(=O)[C@H](Cc1ccc(O)cc1)NC(=O)[C@H](C)NC(=O)[C@@H](CCC(=O)O)NC(=O)[C@@H](CCC(=O)O)NC(=O)[C@@H](CCC(=O)O)NC(=O)[C@@H](CCC(=O)O)NC(=O)[C@@H](CCC(=O)O)NC(=O)[C@@H](CCC(=O)O)NC(=O)CN1CCN(CC(=O)O)CCN(CC(=O)O)CCN(CC(=O)O)CC1)C(=O)N[C@@H](CC(=O)O)C(=O)N[C@@H](Cc1ccccc1)C(N)=O [^177Lu-PP-F11, metal not drawn, reference compound] | – | – | – | – | – | 5.5 |
| CCCC[C@H](NC(=O)[C@H](Cc1c[nH]c2ccccc12)NC(=O)CNC(=O)[C@H](Cc1ccc(O)cc1)NC(=O)[C@H](C)NC(=O)[C@@H](CCC(=O)O)NC(=O)[C@@H](CCC(=O)O)NC(=O)[C@@H](CCC(=O)O)NC(=O)[C@@H](CCC(=O)O)NC(=O)[C@@H](CCC(=O)O)NC(=O)[C@@H](CCC(=O)O)NC(=O)CN1CCN(CC(=O)O)CCN(CC(=O)O)CCN(CC(=O)O)CC1)C(=O)N[C@@H](CC(=O)O)C(=O)N[C@@H](Cc1ccccc1)C(N)=O [^177Lu-PP-F11N, metal not drawn, reference compound] | – | – | – | – | 22.3 | 12.7 |

Second part, led by results:

| tissue uptake [1] [%ID/g] | fraction unbound at 4 h, 500 pmol/mL [2] | fraction unbound at 24 h, 500 pmol/mL [2] | Percentage of radioligand bound to serum proteins after 24 h incubation [2] [%] | intact radioligand present in the blood at 10 min p.i. [3] [%] | Compound | intact radioligand present in the blood at 30 min p.i. [3] [%] |
| --- | --- | --- | --- | --- | --- | --- |
| – | 0.59 | 0.557 | – | 82.7±3.3 | CCCC[C@@H](C(=O)N[C@@H](CC(=O)O)C(=O)N[C@@H](Cc1cccc2ccccc12)C(N)=O)N(C)C(=O)[C@H](Cc1c[nH]c2ccccc12)NC(=O)CNC(=O)[C@H](Cc1ccc(O)cc1)NC(=O)[C@H](C)NC(=O)[C@@H](CCC(=O)O)NC(=O)CN1CCN(CC(=O)O)CCN(CC(=O)O)CCN(CC(=O)O)CC1 [^111In-DOTA-MGS5, metal not drawn] | – |
| – | 0.683 | 0.654 | ~30 | 88.4±0.4 | CCCC[C@@H](C(=O)N[C@@H](CC(=O)O)C(=O)N[C@@H](Cc1ccc2ccccc2c1)C(N)=O)N(C)C(=O)[C@H](Cc1c[nH]c2ccccc12)NC(=O)CNC(=O)[C@H](Cc1ccc(O)cc1)NC(=O)[C@H](C)NC(=O)[C@@H](CCC(=O)O)NC(=O)CN1CCN(CC(=O)O)CCN(CC(=O)O)CCN(CC(=O)O)CC1 [^111In-DOTA-MGS5-2, metal not drawn] | – |
| – | – | – | – | 80.0±5.2 | CCCC[C@@H](C(=O)N[C@@H](CC(=O)O)C(=O)N[C@@H](Cc1cccc2ccccc12)C(N)=O)N(C)C(=O)[C@H](Cc1c[nH]c2ccccc12)NC(=O)CNC(=O)[C@H](Cc1ccc(O)cc1)NC(=O)[C@@H]1CCCN1C(=O)[C@@H](CCC(=O)O)NC(=O)CN1CCN(CC(=O)O)CCN(CC(=O)O)CCN(CC(=O)O)CC1 [^111In-DOTA-MGS8, metal not drawn] ({DOTA}-[dE]PYGW[NMeNle]D[1Nal]-NH2) | – |
| – | 0.433 | – | – | 82.3±1.8 | CCCC[C@@H](C(=O)N[C@@H](CC(=O)O)C(=O)N[C@@H](Cc1cccc2ccccc12)C(N)=O)N(C)C(=O)[C@H](Cc1c[nH]c2ccccc12)NC(=O)CNC(=O)[C@@H]1CCCN1C(=O)[C@H](Cc1ccc(O)cc1)NC(=O)[C@@H](CCC(=O)O)NC(=O)CN1CCN(CC(=O)O)CCN(CC(=O)O)CCN(CC(=O)O)CC1 [^111In-DOTA-MGS10, metal not drawn] ({DOTA}-[dE]YPGW[NMeNle]D[1Nal]-NH2) | – |
| – | 0.681 | 0.602 | ~30 | 98.4±0.1 | CCCC[C@@H](C(=O)N[C@@H](CC(=O)O)C(=O)N(C)[C@@H](Cc1cccc2ccccc12)C(N)=O)N(C)C(=O)[C@H](Cc1c[nH]c2ccccc12)NC(=O)CNC(=O)[C@H](Cc1ccc(O)cc1)NC(=O)[C@H](C)NC(=O)[C@@H](CCC(=O)O)NC(=O)CN1CCN(CC(=O)O)CCN(CC(=O)O)CCN(CC(=O)O)CC1 [^111In-DOTA-MGS11, metal not drawn] | – |
| – | – | 0.541 | – | – | CCCC[C@@H](C(=O)N[C@@H](CC(=O)O)C(=O)N[C@@H](Cc1cccc2ccccc12)C(N)=O)N(C)C(=O)[C@H](Cc1c[nH]c2ccccc12)NC(=O)[C@@H]1CCCN1C(=O)[C@H](Cc1ccc(O)cc1)NC(=O)[C@H](C)NC(=O)[C@@H](CCC(=O)O)NC(=O)CN1CCN(CC(=O)O)CCN(CC(=O)O)CCN(CC(=O)O)CC1 [^111In-DOTA-MGS12, metal not drawn] ({DOTA}-[dE]AYPW[NMeNle]D[1Nal]-NH2) | – |
| – | – | – | – | 85.9 | CCCC[C@@H](C(=O)N[C@@H](CC(=O)O)C(=O)N[C@@H](Cc1cccc2ccccc12)C(N)=O)N(C)C(=O)[C@H](Cc1c[nH]c2ccccc12)NC(=O)CNC(=O)[C@H](Cc1ccc(O)cc1)NC(=O)[C@H](C)NC(=O)[C@@H](CCC(=O)O)NC(=O)CN1CCN(CC(=O)O)CCN(CC(=O)O)CCN(CC(=O)O)CC1 [^177Lu-DOTA-MGS5, metal not drawn] | 77.0 |
| – | – | – | – | 80.5 | CCCC[C@@H](C(=O)N[C@@H](CC(=O)O)C(=O)N[C@@H](Cc1cccc2ccccc12)C(N)=O)N(C)C(=O)[C@H](Cc1c[nH]c2ccccc12)NC(=O)CNC(=O)[C@H](Cc1ccc(O)cc1)NC(=O)[C@@H]1CCCN1C(=O)[C@@H](CCC(=O)O)NC(=O)CN1CCN(CC(=O)O)CCN(CC(=O)O)CCN(CC(=O)O)CC1 [^177Lu-DOTA-MGS8, metal not drawn] ({DOTA}-[dE]PYGW[NMeNle]D[1Nal]-NH2) | 56.8 |
